Results published in patent US20240342150A1 (priority 2021, published 2024).

Columns and labels:
[1] = tested on: SARS-CoV-2 variant D614G; format: cell-based
[2] = tested on: SARS-CoV-2 variants; assay: microbe, parasite or virus in culture; format: cell-based

For `O=C(c1ccc(OCCN2CCCCC2)cc1)c1c(-c2ccc(O)cc2)sc2cc(O)ccc12` [Raloxifene, 1-[6-hydroxy-2-(4-hydroxyphenyl)benzo[b]thien-3-yl]-1-[4-[2-(1-piperidinyl)ethoxy]phenyl]methanone], the IC50 [1] was 7.48 µM, the IC50 ([2]; Severe acute respiratory syndrome coronavirus 2, Vero C1008, read-out: IC50 calculated on recovering of cell viability) was 4.5 to 7.99 µM and the “recovery of viability in infected Vero E6 cells” value ([2]; all the tested viral variants) was “able to recover viability”.
